{"source": "patent US20150258108A1", "about": "(priority 2014, published 2015)", "key": {"[1]": {"assay": "Pharmacokinetics in opioid-dependent patients (Phase IB)", "details": "60, 120, 180 mg cohorts"}, "[2]": {"assay": "QT interval (ΔQTcl) in opioid-dependent patients", "type": "in vivo, human", "details": "60, 120, 180 mg, first 24 hours; correlated with serum concentration", "description": "Patients' QT intervals were evaluated at regular time points throughout the study."}, "[3]": {"assay": "Time to resumption of OST and opiate withdrawal scales (COWS, SOWS, OOWS)", "type": "in vivo, human", "details": "opioid-dependent patients"}, "OPRK": {"biological_target": "OPRK (Homo sapiens, UniProt P41145)", "sequence (P41145 whole entry)": "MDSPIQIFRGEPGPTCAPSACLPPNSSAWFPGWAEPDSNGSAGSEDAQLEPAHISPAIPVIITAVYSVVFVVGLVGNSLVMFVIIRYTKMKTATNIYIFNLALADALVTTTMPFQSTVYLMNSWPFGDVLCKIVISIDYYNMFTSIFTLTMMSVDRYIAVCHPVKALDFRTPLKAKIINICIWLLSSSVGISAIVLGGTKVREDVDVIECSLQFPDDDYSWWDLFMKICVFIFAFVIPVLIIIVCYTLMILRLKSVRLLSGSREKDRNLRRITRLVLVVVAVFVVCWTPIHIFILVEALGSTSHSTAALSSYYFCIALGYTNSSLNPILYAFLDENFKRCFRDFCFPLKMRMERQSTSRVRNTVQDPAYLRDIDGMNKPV", "assay": "Activation and inhibition bias quantification G-protein/Beta-arrestin2", "description": "Coupling efficiency (e-coupling) values indicated the relationship between the apparent binding affinity Ki versus the apparent functional potency EC50 of a given agonist ligand and used the equation pKi-pEC50. […] For inhibitory ligands, e-signal was calculated using maximal level of inhibition (Imax) normalized from 0 (basal, buffer) to 1 (agonist without inhibitor). Bias-coupling (quantification of pathway bias) was evaluated by subtracting the EC50 or the Ke issued from the G-protein pathway assays by those issued from β-arrestin pathway assays for a given ligand and in a linear (nM) scale. Bias-efficacy in favor of the G-protein pathway was evaluated by dividing the functional activation and the functional inhibition maximum responses (e-signal) from the G-protein pathway by the beta-arrestin pathway assays for a given ligand."}, "[4]": {"assay": "Ascending single-dose pharmacokinetics of noribogaine in healthy volunteers", "details": "for CL/F / Tmax: fasted healthy males, mean (SD), n = 6; for mean AUC/24 hr / mean AUC/24: fasting, serum"}, "[5]": {"assay": "Pupillometry and cold pressor test in healthy volunteers", "type": "in vivo, human", "details": "3-60 mg single oral dose", "description": "Pulse oximetry and capnography data were collected continuously using a GE Carescape B650 monitoring system from 2 hours prior to dosing and until six hours after dosing, and thereafter at 12, 24, 48 and 72 hours post-dosing. Additional oximetry data were collected at 120, 168 and 216 hours. Pupillary miosis was assessed by pupillometry. Dark-adapted pupil diameter was measured in triplicate using a Neuroptics PLR-200 pupillometer under standardized light intensity (<5 lux) pre-dose, and at 2, 4, 6, 12, 24, 48, 72, 96, 120, 168 and 216 hours post-dosing.\nSummary statistics (means, standard deviations, and coefficients of variation) were determined for each dose group for safety laboratory test data, ECG and pharmacokinetic parameters, and pharmacodynamic variables. Categorical variables were analysed using counts and percentages. Dose-proportionality of AUC and Cmax was assessed using linear regression. The effect of dose on pharmacodynamic parameter values over time was assessed using two-factor analysis of variance (ANOVA). […]\nAnalgesic effect was assessed based on duration of hand immersion in ice water and on visual analog scale (VAS) pain scores upon hand removal from the water bath. […]"}, "[6]": {"system": "OPRD: human opioid receptor delta", "details": "previously shown; cited from earlier work"}}, "data": [{"smiles": "CC[C@H]1CC2C[C@H]3c4[nH]c5ccc(O)cc5c4CCN(C2)C13", "note": "[Noribogaine]", "values": [{"measurement": "Maximum serum concentration (Cmax) versus dose", "setting": "[1]", "result": "increased in a dose-dependent manner"}, {"measurement": "QT interval prolongation (ΔQTcl)", "setting": "[2]", "result": "dose-dependent increase in QT interval prolongation"}, {"measurement": "withdrawal symptoms (COWS, OOWS, SOWS) over first six hours", "setting": "[3]; 120 mg", "result": "generally experienced fewer withdrawal symptoms than the other patients"}, {"measurement": "average time to resumption of opioids (OST)", "setting": "[3]; single 120 mg dose", "result": "greater than 20 hours"}, {"measurement": "Bias G-protein/Beta-arrestin2: Bias-coupling", "setting": "OPRK; Activation", "result": 32}, {"measurement": "Bias G-protein/Beta-arrestin2: Bias-efficacy", "setting": "OPRK; Activation", "result": 0.59}, {"measurement": "Bias G-protein/Beta-arrestin2: Bias-efficacy", "setting": "OPRK; Inhibition", "result": "−0.35"}, {"measurement": "Bias G-protein/Beta-arrestin2: Bias-coupling", "setting": "OPRK; Inhibition (fold more potent at inhibiting Dynorphin A-induced β-arrestin-2 recruitment than G-protein activation)", "result": 144}, {"measurement": "CL/F", "setting": "[4]; 3 mg single oral dose", "result": "41.4 (7.0) L/h"}, {"measurement": "CL/F", "setting": "[4]; 10 mg single oral dose", "result": "42.3 (12.0) L/h"}, {"measurement": "Tmax", "setting": "[4]; 30 mg noribogaine single oral dose", "result": 1.75, "unit": "h"}, {"measurement": "CL/F", "setting": "[4]; 30 mg single oral dose", "result": "46.9 (16.4) L/h"}, {"measurement": "Tmax", "setting": "[4]; 60 mg noribogaine single oral dose", "result": 1.75, "unit": "h"}, {"measurement": "CL/F", "setting": "[4]; 60 mg single oral dose", "result": "34.0 (11.4) L/h"}, {"measurement": "Cmax and AUC versus dose", "setting": "[4]; 3-60 mg single oral doses", "result": "increased linearly with dose"}, {"measurement": "time of peak concentrations after oral noribogaine dosing", "setting": "[4]; across dose groups, healthy volunteers", "result": "2 to 3", "unit": "h"}, {"measurement": "Mean half-life", "setting": "[4]; across dose groups, healthy volunteers, plasma", "result": "28 to 50", "unit": "h"}, {"measurement": "Vd", "setting": "[4]; male, human, plasma, oral", "result": "1420 to 3090", "unit": "L"}, {"measurement": "mean AUC/24 hr", "setting": "[4]; single dose of 3 mg noribogaine free base", "result": 3.1, "unit": "ng/mL"}, {"measurement": "mean AUC/24 hr", "setting": "[4]; single dose of 10 mg noribogaine free base", "result": 10.6, "unit": "ng/mL"}, {"measurement": "mean AUC/24", "setting": "[4]; single dose of 30 mg noribogaine free base", "result": 29.2, "unit": "ng/mL"}, {"measurement": "mean AUC/24", "setting": "[4]; single dose of 60 mg noribogaine free base", "result": 61, "unit": "ng/mL"}, {"measurement": "analgesic effect in the cold pressor test", "setting": "[5]; hand immersion duration and VAS pain scores", "result": "no analgesic effect"}, {"measurement": "pupillary constriction (pupillometry, dark-adapted pupil diameter)", "setting": "[5]; vs placebo", "result": "no evidence of pupillary constriction"}, {"measurement": "fold less affine at OPRD than at OPRK", "setting": "[6]", "result": "~30", "unit": "×"}]}]}
